Reference: PMC9304322, “Targeting retinoic acid receptor alpha-corepressor interaction activates chaperone-mediated autophagy and protects against retinal degeneration” (Nature Communications, 2022)
Where “and” joins values, the source holds several entries; their conditions need not be identical. Equal values may be shown once.

Tests used:
[1] = tested on: CMA network components in NIH3T3 cells; test: qPCR of CMA network components and CMA activation score; assay type: cell-based, mouse; set-up: LAMP2A mRNA level / HSP90AB1 mRNA level / HSP40 mRNA level / RAC1 mRNA level / AKT1 mRNA level / AKT2 mRNA level / CTSA mRNA level / NFATC1 mRNA level / HSC70 mRNA level / NCOR1 mRNA level / NFE2L2 mRNA level / RAB11A mRNA level / RARa mRNA level / HSP90AA1 mRNA level / EEF1A1 mRNA level / RICTOR mRNA level: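 fold of untreated cells after 20 µM for 24 h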; key to CMA activation score: weighted (LAMP-2A ×2), directed (±1) average of CMA network expression; details: individual replicate values;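 for AKT1 mRNA level: fold of untreated cells after 20 µM for 24 h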;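 for AKT2 mRNA level: fold of untreated cells after 20 µM for 24 h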;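 for CTSA mRNA level: fold of untreated cells after 20 µM for 24 h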;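 for HSC70 mRNA level: fold of untreated cells after 20 µM for 24 h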;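 for HSP40 mRNA level: fold of untreated cells after 20 µM for 24 h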;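 for HSP90AA1 mRNA level: fold of untreated cells after 20 µM for 24 h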;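 for HSP90AB1 mRNA level: fold of untreated cells after 20 µM for 24 h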;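 for LAMP2A mRNA level: fold of untreated cells after 20 µM for 24 h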;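 for NCOR1 mRNA level: fold of untreated cells after 20 µM for 24 h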;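 for NFATC1 mRNA level: fold of untreated cells after 20 µM for 24 h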;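 for NFE2L2 mRNA level: fold of untreated cells after 20 µM for 24 h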;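 for PHLPP1 mRNA level: fold of untreated cells after 20 µM for 24 h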;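 for RAB11A mRNA level: fold of untreated cells after 20 µM for 24 h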;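 for RAC1 mRNA level: fold of untreated cells after 20 µM for 24 h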;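 for RARa mRNA level: fold of untreated cells after 20 µM for 24 h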
Method: RNA was extracted from individual retinas or tissue sections (brain, liver). Total RNA from retinas was extracted using TRIzol Reagent (Invitrogen, # 15596-018), and reverse transcription was performed using the High-Capacity cDNA Reverse Transcription Kit (Applied Biosystems, # 4374966) according to the manufacturer’s instructions. Quantitative real-time PCR was performed in a Light Cycler 480 Instrument (Roche) with Taqman LightCycler 480 probes Master Mix (Roche, #4887301001) using Taqman assays (Life Technologies). For cells in culture, RNA was extracted using RNeasy Plus Mini Kit (Qiagen, #74034), and reverse transcription was performed using Superscript III (Invitrogen, #18080051). Quantitative RT-PCR analysis were performed using Power SYBR Green PCR Master Mix (Applied Biosystems, #4368708) on a StepOne Plus Real-Time PCR System (Applied Biosystems). Mm01184405_m1 probe (Thermofisher) was used for rhodopsin and the sequence of all the other probes used for qPCR is included in Supplementary Table 2.
CMA index[14] was calculated using data set from[23]–[25]. Briefly, each element of the CMA network[13] has attributed a weight. As LAMP-2A is the rate-limiting component of CMA, it was given a weight of 2. Every other element received a weight of 1. Then, every element was attributed direction score that is +1 or −1 based on the known effect of a given element on CMA activity. The score was then calculated as the weighted/ directed average of expression counts of every element of the CMA network.

[2] = tested on: NIH3T3 cells stably expressing the mCherry-GFP-LC3 reporter; test: Macroautophagy activity, mCherry-GFP-LC3 reporter; assay type: cell-based, mouse
Method: Cells were transduced with a lentiviral vector expressing mCherry-GFP-LC3[35], fixed and flux determined as the conversion of dual fluorescence puncta (autophagosomes) into only red fluorescent puncta (autolysosomes). Flux was also measured by immunoblot for LC3 in cells incubated for 6 h with 20 mM NH4Cl/100 μM leupeptin, by discounting the intensity of LC3 in non-treated cells from that in cells treated with the inhibitors.

[3] = Fig. 2d (left), one sample t test
[4] = c0 = 2 (axis unlabelled; ANOVA calls row factor Time)

Q: With Cc1ccc(C2=Nc3ccc(Cl)cc3OC2)cc1 [AR7, reference compound] as the compound, how does the “AKT1 mRNA level” value [1, 3] read?
A: Its value is 1.38 and 0.89 and 1.44 and 0.86 and 1.06 and 1.51 and 1.42.

Q: What about the “AKT2 mRNA level” value [1, 3] of the same compound?
A: The value was 1.44 and 0.97 and 1.15 and 0.87 and 1.19 and 1.60 and 1.34.

Q: And the “CTSA mRNA level” value [1, 3]?
A: Its value is 1.25 and 1.34 and 1.07 and 0.82 and 1.13 and 1.21 and 1.33.

Q: And the “EEF1A1 mRNA level” value [1, 3]?
A: Its value is 1.17 and 1.49 and 1.26 and 1.78 and 0.79 and 1.54.

Q: What about the “HSC70 mRNA level” value [1, 3] of the same compound?
A: Its value is 1.32 and 1.34 and 1.36 and 1.12 and 1.37 and 1.41.

Q: And the “HSP40 mRNA level” value [1, 3]?
A: Its value is 0.98 and 1.05 and 1.10 and 0.85 and 0.99 and 0.72 and 1.06.

Q: What about the “HSP90AA1 mRNA level” value [1, 3] of the same compound?
A: The value was 1.28 and 0.87 and 0.85 and 0.56 and 0.80 and 0.78 and 0.86.

Q: And the “HSP90AB1 mRNA level” value [1, 3]?
A: Its value is 0.93 and 0.89 and 0.92 and 0.63 and 0.94 and 0.80.

Q: And the “LAMP2A mRNA level” value [1, 3]?
A: Its value is 1.15 and 1.53 and 1.46 and 1.28 and 1.31 and 1.13 and 1.27.

Q: What about the “NCOR1 mRNA level” value [1, 3] of the same compound?
A: The value was 1.16 and 1.11 and 1.26 and 0.79 and 0.85 and 0.87 and 1.01.

Q: And the “NFATC1 mRNA level” value [1, 3]?
A: Its value is 1.04 and 0.72 and 1.34 and 0.83 and 1.03 and 1.25 and 1.28.

Q: And the “NFE2L2 mRNA level” value [1, 3]?
A: The value was 1.81 and 0.87 and 0.79 and 0.50 and 0.68 and 0.86 and 1.01.

Q: And the “PHLPP1 mRNA level” value [1, 3]?
A: The value was 1.42 and 1.17 and 1.27 and 2.72 and 1.10 and 1.18 and 1.28.

Q: And the “RAB11A mRNA level” value [1, 3]?
A: Its value is 1.10 and 1.22 and 1.00 and 0.72 and 0.93 and 1.01.

Q: What about the “RAC1 mRNA level” value [1, 3] of the same compound?
A: The value was 1.21 and 1.55 and 1.26 and 1.08 and 1.31 and 1.54 and 1.42.

Q: What about the “RARa mRNA level” value [1, 3] of the same compound?
A: Its value is 0.99 and 0.33 and 1.02 and 0.95 and 0.90 and 0.86.

Q: What about the “RICTOR mRNA level” value [1, 3] of the same compound?
A: The value was 0.52 and 1.27 and 0.85 and 0.95 and 1.43.

Q: What about the CMA activation score ([1]; Fig. 2d (right)) of the same compound?
A: The CMA activation score was -0.03086 and 0.1313 and 0.07179 and -0.1523.

Q: What about the effect on macroautophagy ([2]; NIH3T3, MRT-sensitive proteolysis, LC3-II flux, mCherry-GFP-LC3 reporter) of the same compound?
A: The effect on macroautophagy was “did not have the inhibitory effect on macroautophagy”.

Q: What about the “APG (Fig. S3e)” value [2, 4] of the same compound?
A: The value was 0.9242.

Q: And the “AUT (Fig. S3e)” value [2, 4]?
A: The value was 2.505.

Q: What about the “AV (Fig. S3e)” value [2, 4] of the same compound?
A: Its value is 3.429.

Q: And the “APG (Fig. S3e)” value ([2]; c0 = 5 (axis unlabelled))?
A: Its value is 0.8222.

Q: What about the “AUT (Fig. S3e)” value ([2]; c0 = 5 (axis unlabelled)) of the same compound?
A: The value was 2.321.

Q: And the “AV (Fig. S3e)” value ([2]; c0 = 5 (axis unlabelled))?
A: Its value is 3.1431.

Q: What about the “APG (Fig. S3e)” value ([2]; c0 = 10 (axis unlabelled)) of the same compound?
A: Its value is 0.7738.

Q: And the “AUT (Fig. S3e)” value ([2]; c0 = 10 (axis unlabelled))?
A: The value was 2.246.

Q: And the “AV (Fig. S3e)” value ([2]; c0 = 10 (axis unlabelled))?
A: The value was 3.0194.

Q: What about the “APG (Fig. S3e)” value ([2]; c0 = 15 (axis unlabelled)) of the same compound?
A: Its value is 0.7216.

Q: What about the “AUT (Fig. S3e)” value ([2]; c0 = 15 (axis unlabelled)) of the same compound?
A: Its value is 2.244.

Q: And the “AV (Fig. S3e)” value ([2]; c0 = 15 (axis unlabelled))?
A: Its value is 2.965.

Q: And the “APG (Fig. S3e)” value ([2]; c0 = 20 (axis unlabelled))?
A: The value was 0.9029.

Q: What about the “AUT (Fig. S3e)” value ([2]; c0 = 20 (axis unlabelled)) of the same compound?
A: Its value is 2.059.

Q: What about the “AV (Fig. S3e)” value ([2]; c0 = 20 (axis unlabelled)) of the same compound?
A: Its value is 2.962.

Q: And the “APG (Fig. S3e)” value ([2]; c0 = 25 (axis unlabelled))?
A: The value was 0.9112.

Q: What about the “AUT (Fig. S3e)” value ([2]; c0 = 25 (axis unlabelled)) of the same compound?
A: Its value is 2.774.

Q: And the “AV (Fig. S3e)” value ([2]; c0 = 25 (axis unlabelled))?
A: Its value is 3.685.

Q: What about the “APG (Fig. S3e)” value ([2]; c0 = 30 (axis unlabelled)) of the same compound?
A: The value was 0.9867.

Q: What about the “AUT (Fig. S3e)” value ([2]; c0 = 30 (axis unlabelled)) of the same compound?
A: The value was 2.8387.

Q: And the “AV (Fig. S3e)” value ([2]; c0 = 30 (axis unlabelled))?
A: The value was 3.825.

Q: And the “APG (Fig. S3e)” value ([2]; c0 = 40 (axis unlabelled))?
A: Its value is 1.111.

Q: And the “AUT (Fig. S3e)” value ([2]; c0 = 40 (axis unlabelled))?
A: Its value is 2.723.

Q: And the “AV (Fig. S3e)” value ([2]; c0 = 40 (axis unlabelled))?
A: The value was 3.834.

Q: And the “APG (Fig. S3e)” value ([2]; c0 = 50 (axis unlabelled))?
A: Its value is 0.7488.

Q: And the “AUT (Fig. S3e)” value ([2]; c0 = 50 (axis unlabelled))?
A: The value was 3.18.

Q: What about the “AV (Fig. S3e)” value ([2]; c0 = 50 (axis unlabelled)) of the same compound?
A: Its value is 3.929.
